Data taken from patent US20210079476A1, “BIOMARKERS OF RENAL OSTEODYSTROPHY TYPE” (The Trustees of Columbia University in the City of New York, priority 2018, published 2021).
Entries after “also recorded” stand apart in the source; their conditions may differ.

Experiments:
Cy/+ (CKD) rat = conditions: Cy/+ CKD rat model; cited from earlier work
[1] = test system: miRNA 30b, 30c, 125b and 155; type: in vivo, rat; conditions: CKD rats
Description: (§1) The Cy/+ rat model of CKD was used to assess bone expression of miRNAs. Cy/+ rats are characterized by an autosomal dominant progressive cystic kidney disease that is […] with human ADPKD(63). […] The Cy/+IU colony of rats has been bred for nearly 20 years. The model recapitulates CKD-MBD with progressive kidney disease, hyperphosphatemia, secondary hyperparathyroidism, elevated FGF-23, resulting in ROD and vascular calcification. Importantly, the slowly progressive nature of the model allows for examination of interventions that differentially affect bone remodeling. […] In brief, CKD animals (n=8-10 each group) began treatment at 25 weeks for a total of 10 weeks and received 1) no treatment (control CKD=high PTH/high turnover, 2) 3% calcium in the drinking water (CKD/Ca group=low PTH/low turnover), or 3) a single injection of zoledronic acid (CKD/Zol group=high PTH/low turnover). At 35 weeks of age, animals were euthanized and bone tissue were collected. Bone histomorphometry as previously reported (67). RNA was isolated from tibia and bone miRNA expression determined by real time PCR using TaqMan miRNA assay as above.
The Cy/+ rat model of CKD was used to assess bone expression of miRNAs. […] The Cy/+IU colony of rats has been bred at Indiana University for nearly 20 years. The model recapitulates CKD-MBD with progressive kidney disease, hyperphosphatemia, secondary hyperparathyroidism, elevated FGF-23, resulting in ROD and vascular calcification. Importantly, the slowly progressive nature of the model allows for examination of interventions that differentially affect bone remodeling. Specifically, we have induced low turnover bone remodeling by two methods: with calcium in the drinking water (calcium binders) and zoledronic acid.^41, 42 In brief, CKD animals (n=8 to 10 each group) began treatment at 25 weeks for a total of 10 weeks and received: (i) no treatment (control CKD=high PTH/high turnover; (ii) 3% calcium in the drinking water (CKD/Ca group=low PTH/low turnover); or (iii) a single injection of 20 μg/kg of zoledronic acid (CKD/Zol group=high PTH/low turnover). At 35 weeks of age, animals were euthanized and bone tissue was collected. Bone histomorphometry was performed as previously reported.^43 RNA was isolated from tibia, and bone miRNA expression was determined by real-time PCR using TaqMan miRNA assay as described above. All procedures were reviewed and approved by the Indiana University School of Medicine Institutional Animal Care and Use Committee.

CKD rats (Cy/+) [2] = test: Cy/+ rat model of CKD: bone turnover by histomorphometry after treatment; type: in vivo
Description: as §1
The Cy/+ rat model of CKD was used to assess bone expression of miRNAs. […] The Cy/+IU colony of rats has been bred at Indiana University for nearly 20 years. […]

CKD rats (Cy/+) [3] = conditions: Cy/+ rat model; cited from earlier work

Row | Structure (SMILES) | suppressing bone turnover (Cy/+ (CKD) rat) | levels of miRNAs, low turnover induced by dietary calcium compared with zoledronic acid ([1]; bone tissue) | bone-tissue expression of miRNA-30b vs rats with high turnover ([1]; tibia, 35 weeks of age) | bone-tissue expression of miRNA-30c vs rats with high turnover ([1]; tibia, 35 weeks of age) | bone-tissue expression of miRNA-125b vs rats with high turnover ([1]; tibia, 35 weeks of age) | bone-tissue expression of miRNA-155 vs rats with high turnover ([1]; tibia, 35 weeks of age) | PTH status of the treated group (CKD rats (Cy/+) [2]; same treatment groups, untreated CKD = high PTH) | type of bone turnover induced by the intervention (histomorphometry) (CKD rats (Cy/+) [2]; treatment from 25 weeks of age for 10 weeks, 3% calcium in drinking water or single injection of zoledronic acid, untreated CKD = high turnover) | induction of low turnover bone remodeling (CKD rats (Cy/+) [3])
1 | C=C1/C(=C\C=C2/CCC[C@]3(C)[C@@H]([C@H](C)CCCC(C)(C)O)CC[C@@H]23)C[C@@H](O)C[C@@H]1O [Calcitriol] | not effective | – | – | – | – | – | – | – | –
2 | [Ca+2] [calcium] | – | did not differ | low expression; also recorded: lower | low expression; also recorded: lower | low expression; also recorded: lower | low expression; also recorded: lower | low PTH | low turnover | low turnover bone remodeling has been induced
